Our source for the GI50 and TGI values is PubChem BioAssay (NCI).

“And” between values parts separate entries of the source, which are not always exact repeats. Equal entries are not always repeated.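 These data come from cells grown in 96-well plates and exposed to compound for 48 hours at five concentrations. GI50 = concentration required for 50% inhibition of growth. TGI: concentration producing complete growth inhibition.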

Some test systems named below: MDA-MB-435; RXF 393 renal; OVCAR-3 ovarian; MDA-MB-231 breast; SF-268 CNS; OVCAR-8 ovarian; KM12 colon; UACC-62 melanoma; SN12C renal; CCRF-CEM leukemia.
Assay in all cases: DTP human tumour cell line panel, 48 h

On to `CN1CCN(CCCOc2cccc3nc(Nc4ccc(Cl)c(F)c4)ccc23)CC1`, for which the GI50 is 1.61 µM with MDA-MB-435; 1.96 µM with RXF 393 renal; 1.7 µM with OVCAR-3 ovarian; 1.68 µM in the assay on MDA-MB-231 breast; 1.72 µM in the assay with SF-268 CNS; 2.02 µM in the assay on OVCAR-8 ovarian. The figures for the GI50 in the assay with KM12 colon, with UACC-62 melanoma and with SN12C renal were 1.77 µM, 2.05 µM and 4.16 µM, respectively. Besides, the TGI came out at 3.14 µM in the assay on MDA-MB-435; 4.04 µM in the assay with RXF 393 renal; 3.29 µM in the assay on OVCAR-3 ovarian; 3.39 µM in the assay on MDA-MB-231 breast; 3.46 µM in the assay on SF-268 CNS; 3.65 µM in the assay with OVCAR-8 ovarian. The TGI amounted to 3.43 µM with KM12 colon, 4.1 µM in the assay on UACC-62 melanoma and 16 µM in the assay with SN12C renal.
In the case of `Cc1cc(N2CCN(C)CC2)nc(NCc2cc(Nc3ccnc4cc(Cl)ccc34)ccc2F)n1`, the GI50 was 1.76 µM in the assay with MDA-MB-435; 1.63 µM in the assay with RXF 393 renal; 2 µM in the assay with OVCAR-3 ovarian; 1.99 µM in the assay with SF-268 CNS; 3.13 µM with OVCAR-8 ovarian; 3.2 µM in the assay on KM12 colon. Moreover, the GI50 in the assay with SN12C renal is 2.3 µM. Besides, the TGI in the assay on MDA-MB-435 was 3.9 µM; with RXF 393 renal, 3.82 µM; in the assay with OVCAR-3 ovarian, 4.15 µM; in the assay on SF-268 CNS it was 7.76 µM; in the assay with OVCAR-8 ovarian, 9.68 µM; in the assay with KM12 colon, greater than 100 µM. For the same compound, the TGI with SN12C renal was 5.62 µM.
On to `C/C=C(\C)c1cc(=O)c2c(C)cc3c(c2o1)C(=O)c1c(O)c(C2CC(C)(N(C)C)C(O)C(C)O2)cc(C2CC(N(C)C)C(O)C(C)O2)c1C3=O` (configuration not stated), for which the TGI in the assay with MDA-MB-435 was 0.866 µM; in the assay with MDA-MB-231 breast, 0.764 µM; with CCRF-CEM leukemia, greater than 52 µM; in the assay on SF-268 CNS, 0.738 µM and 4.52 µM; in the assay with KM12 colon it was 2.42 µM and > 23 µM. The GI50 in the assay with RXF 393 renal is 0.156 µM and 1.39 µM; with SF-268 CNS, 0.134 µM and 0.632 µM.
Regarding `COc1ccc(Cl)cc1Nc1nc(C(F)(F)F)ccc1C(=O)N/N=C/c1ccc([N+](=O)[O-])cc1`, the GI50 in the assay with MDA-MB-435 was 2.66 µM; with RXF 393 renal, 1.28 µM; with OVCAR-3 ovarian it was 1.25 µM; in the assay on MDA-MB-231 breast, 1.49 µM; in the assay with CCRF-CEM leukemia, 30.8 µM; with SF-268 CNS, 1.69 µM. Also, the values for the GI50 in the assay on OVCAR-8 ovarian, with KM12 colon and in the assay with UACC-62 melanoma were 2.77 µM, 1.79 µM and 2.17 µM, respectively. Besides, the TGI is 13.1 µM in the assay on MDA-MB-435; 6.04 µM with RXF 393 renal; 3.78 µM with OVCAR-3 ovarian; 4.38 µM in the assay on MDA-MB-231 breast; greater than 100 µM with CCRF-CEM leukemia; 5.8 µM in the assay on SF-268 CNS. Further, the TGI was determined as 62.2 µM in the assay on OVCAR-8 ovarian, 4.98 µM with KM12 colon and 6.77 µM in the assay on UACC-62 melanoma.
Regarding `CN(CCC#N)c1ccc(/C=C(\C#N)c2cccc(C(F)(F)F)c2)cc1`, the GI50 in the assay with MDA-MB-435 is 2.07 µM; in the assay with RXF 393 renal, 3.75 µM; with OVCAR-3 ovarian, 4.29 µM; with MDA-MB-231 breast, 4.56 µM; in the assay with SF-268 CNS, 6.66 µM; in the assay with OVCAR-8 ovarian, 3.99 µM. In addition, the GI50 with KM12 colon was 2.97 µM; in the assay with UACC-62 melanoma, 3.96 µM; in the assay on SN12C renal it was 4.17 µM. Besides, the TGI with MDA-MB-435 is 6 µM; in the assay on RXF 393 renal, greater than 100 µM; with OVCAR-3 ovarian, greater than 100 µM; in the assay with MDA-MB-231 breast, greater than 100 µM; in the assay on SF-268 CNS, greater than 100 µM; with OVCAR-8 ovarian, greater than 100 µM. Moreover, the TGI in the assay with KM12 colon, in the assay on UACC-62 melanoma and in the assay on SN12C renal was greater than 100 µM each time.
Turning to `COc1cc2ccccc2c2cc([N+](=O)[O-])oc12`, the TGI in the assay with MDA-MB-435 is 0.733 µM; in the assay with RXF 393 renal, 0.844 µM; in the assay on OVCAR-3 ovarian, 5.41 µM; with MDA-MB-231 breast, 5.8 µM; in the assay on SF-268 CNS, greater than 27.1 µM; in the assay with OVCAR-8 ovarian it was greater than 71.8 µM. In addition, the TGI was 4.68 µM in the assay on KM12 colon, 2.36 µM in the assay with UACC-62 melanoma and greater than 48.7 µM in the assay with SN12C renal.
In the case of `COc1cc([N+](=O)[O-])c(S(=O)(=O)O)cc1NS(=O)(=O)c1ccc(C)cc1`, the TGI with MDA-MB-435, in the assay on OVCAR-3 ovarian, in the assay on MDA-MB-231 breast, in the assay on CCRF-CEM leukemia, in the assay on SF-268 CNS and in the assay on OVCAR-8 ovarian was greater than 100 µM in each case. For the same compound, the TGI in the assay on KM12 colon, in the assay on UACC-62 melanoma and with SN12C renal was greater than 100 µM in each case.
As to `COc1ccc2c(c1)[C@]1(C[C@H]1c1ccc3c(/C=C/c4ccc(CN5C[C@@H](C)O[C@@H](C)C5)cc4)n[nH]c3c1)C(=O)N2`, the GI50 with MDA-MB-435 is 3.75 µM; in the assay on RXF 393 renal, 1.85 µM; in the assay on OVCAR-3 ovarian, 4.19 µM; in the assay with MDA-MB-231 breast, 4.35 µM; in the assay on SF-268 CNS it was 4.63 µM; in the assay on OVCAR-8 ovarian it was 5.06 µM. Moreover, the values for the GI50 in the assay on KM12 colon, in the assay on UACC-62 melanoma and in the assay on SN12C renal were 0.0143 µM, 9.79 µM and 5.15 µM, respectively. Also, the TGI in the assay on MDA-MB-435 is 21.8 µM; with RXF 393 renal it was 4.4 µM; in the assay on OVCAR-3 ovarian it was 18.5 µM; in the assay on MDA-MB-231 breast, greater than 54 µM; with SF-268 CNS it was greater than 90.6 µM; with OVCAR-8 ovarian, 51.1 µM. Also, the results for the TGI in the assay on KM12 colon, in the assay with UACC-62 melanoma and in the assay on SN12C renal were greater than 73.6 µM, 39.6 µM and greater than 56.7 µM, respectively.
Regarding `Cc1cc2cccnc2c2ncccc12`, the GI50 in the assay with MDA-MB-435 was 2.15 µM; in the assay with RXF 393 renal it was 1.89 µM; in the assay with OVCAR-3 ovarian, 1.75 µM; with MDA-MB-231 breast, 0.74 µM; in the assay with SF-268 CNS, 0.739 µM; with OVCAR-8 ovarian, 0.626 µM. The GI50 in the assay with KM12 colon was 0.78 µM; with UACC-62 melanoma, 1.28 µM; with SN12C renal it was 1.18 µM. The TGI in the assay on MDA-MB-435 was 21.9 µM; in the assay with RXF 393 renal, 6.77 µM; in the assay with OVCAR-3 ovarian, 10.3 µM; with MDA-MB-231 breast, greater than 100 µM; in the assay on SF-268 CNS it was 27.7 µM; in the assay with OVCAR-8 ovarian it was 11.9 µM. Also, the results for the TGI with KM12 colon, with UACC-62 melanoma and with SN12C renal were 18.4 µM, 9.19 µM and greater than 100 µM, respectively.
Take `O=S1CSCS1` (configuration not stated): the TGI in the assay on RXF 393 renal, in the assay with OVCAR-3 ovarian, in the assay with CCRF-CEM leukemia, in the assay with SF-268 CNS, in the assay on OVCAR-8 ovarian and in the assay with KM12 colon was greater than 100 µM throughout. For the same compound, the TGI in the assay with UACC-62 melanoma and in the assay with SN12C renal was greater than 100 µM throughout.

Broadly, the GI50 is the concentration at which growth is held to half of that of the control. In general, TGI refers to the concentration at which net growth stops.
